According to ChEMBL document CHEMBL3046651, “Cytotoxicity and QSAR study of (thio)ureas derived from phenylalkylamines and pyridylalkylamines” (Med Chem Res, 2013):

Assays:
Format in all cases: functional, cell-based
[1] = Cytotoxicity against Homo sapiens (human) HuCCa1 cells assessed as inhibition of cell growth after 3 days by crystal violet staining; settings: HuCC-A1, 72 h
A549 = test: Cytotoxicity against Homo sapiens (human) A549 cells assessed as inhibition of cell growth after 3 days by MTT assay; settings: A549, 72 h
MOLT-3 = test: Cytotoxicity against Homo sapiens (human) MOLT3 cells assessed as inhibition of cell growth after 3 days by crystal violet staining; settings: MOLT-3, 72 h
HepG2 = test: Cytotoxicity against Homo sapiens (human) HepG2 cells assessed as inhibition of cell growth after 3 days by MTT assay; settings: HepG2, 72 h

## O=[N+]([O-])c1ccc(NC(S)=NCCc2ccccc2)cc1
[1]
  IC50: 19.1 µM
A549
  IC50: 80.3 µM
MOLT-3
  IC50: 12.5 µM
HepG2
  IC50: 25.4 µM

## O=C(NCCc1ccccc1)Nc1ccc(Cl)cc1
[1]
  IC50: > 182 µM
A549
  IC50: > 182 µM
MOLT-3
  IC50: > 182 µM
HepG2
  IC50: 37.6 µM

## S=C(NCc1ccccn1)Nc1ccc(Cl)cc1
[1]
  IC50: > 180 µM
A549
  IC50: > 180 µM
MOLT-3
  IC50: 119 µM
HepG2
  IC50: > 180 µM

## S=C(NCCc1ccccc1)Nc1ccc(Cl)cc1
[1]
  IC50: 84.2 µM
A549
  IC50: 75.7 µM
MOLT-3
  IC50: 25.1 µM
HepG2
  IC50: 44.7 µM

## S=C(NCCc1ccccn1)Nc1ccc(Cl)cc1
[1]
  IC50: > 171 µM
A549
  IC50: > 171 µM
MOLT-3
  IC50: 120 µM
HepG2
  IC50: > 171 µM

## O=C(NCc1ccccn1)Nc1ccc(Cl)cc1
[1]
  IC50: > 191 µM
A549
  IC50: > 191 µM
MOLT-3
  IC50: 186 µM
HepG2
  IC50: > 191 µM

## COc1ccc(CCNC(=S)Nc2ccc([N+](=O)[O-])cc2)cc1OC
[1]
  IC50: > 138 µM
A549
  IC50: 65 µM
MOLT-3
  IC50: 21.7 µM
HepG2
  IC50: 42.4 µM

## COc1ccc(CCNC(=S)Nc2ccc(Cl)cc2)cc1OC
[1]
  IC50: 139 µM
A549
  IC50: 129 µM
MOLT-3
  IC50: 38.9 µM
HepG2
  IC50: 60.8 µM

## COc1ccc(CCNC(=O)Nc2ccc(Cl)cc2)cc1OC
[1]
  IC50: > 149 µM
A549
  IC50: > 149 µM
MOLT-3
  IC50: 50.7 µM
HepG2
  IC50: 52.8 µM

## O=[N+]([O-])c1ccc(NC(=S)NCCc2ccccn2)cc1
[1]
  IC50: > 165 µM
A549
  IC50: > 165 µM
MOLT-3
  IC50: 78.7 µM
HepG2
  IC50: 152 µM

## O=C(NCCc1ccccn1)Nc1ccc(Cl)cc1
[1]
  IC50: > 181 µM
A549
  IC50: > 181 µM
MOLT-3
  IC50: 66.9 µM
HepG2
  IC50: 22.7 µM

## O=[N+]([O-])c1ccc(NC(=S)NCc2ccccn2)cc1
[1]
  IC50: > 173 µM
A549
  IC50: > 173 µM
MOLT-3
  IC50: 54.1 µM
HepG2
  IC50: 34.7 µM

## O=[N+]([O-])c1ccc(NC(=S)NCc2cccc(CNC(=S)Nc3ccc([N+](=O)[O-])cc3)c2)cc1
[1]
  IC50: 34.2 µM
A549
  IC50: 88.6 µM
MOLT-3
  IC50: 3.36 µM
HepG2
  IC50: 7.51 µM

## S=C(NCc1cccc(CNC(=S)Nc2ccc(Cl)cc2)c1)Nc1ccc(Cl)cc1
[1]
  IC50: 52.6 µM
A549
  IC50: > 105 µM
MOLT-3
  IC50: 1.62 µM
HepG2
  IC50: 7.63 µM

## COc1cccc2c1C(=O)c1c(O)c3c(c(O)c1C2=O)C[C@@](O)(C(=O)CO)C[C@@H]3O[C@H]1C[C@H](N)[C@H](O)[C@H](C)O1 [DOXORUBICIN]
[1]
  IC50: 0.64 µM
A549
  IC50: 0.7 µM
HepG2
  IC50: 0.42 µM
